Structures can show the parent of a compound that is named as a salt. Where two headings read alike, the source gives them in different places.
Columns and labels:
MCL-1 = MCL-1 (Homo sapiens (Human), UniProt Q07820, K194A/K197A/R201A); experiment: Protein-protein interaction assay MCL-1/Noxa BH3 peptide (MCL-1 assay, TR-FRET); assay type: binding; conditions: MCL-1 Assay IC50 (median)
Outline: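 Competition TR-FRET with MBP-MCL-1 (aa 173-321) at 1 nM final and biotinylated Noxa BH3 peptide, pH 7 Tris buffer. Compounds pre-incubated 10 min at 22° C., then 1 h at 22° C. and overnight at 4° C. 665/620 nm ratio normalized to DMSO; IC50 from 4-parameter fit.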

SUDHL5 cells = experiment: Antiproliferation assay SUDHL5 (Assay 7); assay type: cell-based
Outline: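 72 h antiproliferation, 37 °C, CellTiter-Glo luminescence. Day 0 plate = CI; DMSO = C0; IC50 calculated from these.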

[1] = 72 h, CellTiter-Glo; read-out: Antiproli SUDHL5 IC50 (median)
[2] = Homo sapiens, SU-DHL-5, 72 h, 72 h, CellTiter-Glo; read-out: Antiproli SUDHL5 IC50 (median)
[3] = read-out: Antiproli SUDHL5 IC50 (median); 72 h, CellTiter-Glo

Sequence of MCL-1 (Q07820 whole entry, looked up, stated change not applied, the tested form may be a part): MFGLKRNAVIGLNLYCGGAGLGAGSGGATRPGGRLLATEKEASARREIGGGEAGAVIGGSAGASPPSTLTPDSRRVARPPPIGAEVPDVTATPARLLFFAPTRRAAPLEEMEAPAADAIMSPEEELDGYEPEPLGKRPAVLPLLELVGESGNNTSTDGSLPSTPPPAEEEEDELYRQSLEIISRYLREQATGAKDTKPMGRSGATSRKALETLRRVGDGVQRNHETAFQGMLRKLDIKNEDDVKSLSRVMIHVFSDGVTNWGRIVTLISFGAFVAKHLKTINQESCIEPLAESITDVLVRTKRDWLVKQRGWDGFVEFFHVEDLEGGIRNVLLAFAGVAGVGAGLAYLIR

Question: How did the IC50 (MCL-1) turn out when CCc1c2c(nn1C)C(CCC1CCOCC1)OCCCCn1c(C(=O)O)c(CCCOc3cccc4cc(F)ccc34)c3ccc(Cl)c-2c31 (single isomer, unassigned; enantiomer 1) [Example 61, 4-chloro-3-ethyl-7-{3-[(6-fluoronaphthalen-1-yl)oxy]propyl}-2-methyl-15-[2-(oxan-4-yl)ethyl]-2,10,11,12,13,15-hexahydropyrazolo[4′,3′:9,10][1,6]oxazacycloundecino[8,7,6-hi]indole-8-carboxylic Acid (Enantiomer 1)] was run?
Answer: 0.46 nM

Question: What about the IC50 (SUDHL5 cells; [1]) of the same compound?
Answer: 24 nM

Question: What does the source list for CCc1c2c(nn1C)C(CCN1CCOCC1)OCCCCn1c(C(=O)O)c(CCCOc3cccc4cc(F)ccc34)c3ccc(F)c-2c31 (single isomer, unassigned; enantiomer 1) [Example 50, (+)-3-ethyl-4-fluoro-7-{3-[(6-fluoronaphthalen-1-yl)oxy]propyl}-2-methyl-15-[2-(morpholin-4-yl)ethyl]-2,10,11,12,13,15-hexahydropyrazolo[4′,3′:9,10][1,6]oxazacycloundecino[8,7,6-hi]indole-8-carboxylic Acid (Enantiomer 1)]?
Answer: IC50 (MCL-1): 0.48 nM; IC50 (SUDHL5 cells; [1]): 11 nM

Question: How did the IC50 (MCL-1) turn out when CCc1c2c(nn1C)C(C(F)(F)F)OCCCCn1c(C(=O)O)c(CCCOc3cccc4ccccc34)c3ccc(Cl)c-2c31 (racemic) [Example 27, (rac)-4-Chloro-3-ethyl-2-methyl-7-{3-[(naphthalen-1-yl)oxy]propyl}-15-(trifluoromethyl)-2,10,11,12,13,15-hexahydropyrazolo[4′,3′:9,10][1,6]oxazacycloundecino[8,7,6-hi]indole-8-carboxylic Acid] was run?
Answer: 3.8 nM

Question: And the IC50 (SUDHL5 cells; [2])?
Answer: 170 nM

Question: Which IC50 (MCL-1) does the source give for Cc1c2c(nn1C)C(C)OCCCCn1c(C(=O)O)c(CCCOc3cccc4ccccc34)c3cccc-2c31 (racemic) [Example 1, (rac)-2,3,15-trimethyl-7-[3-(naphthalen-1-yloxy)propyl]-2,10,11,12,13,15-hexahydropyrazolo[4′,3′:9,10][1,6]oxazacycloundecino[8,7,6-hi]indole-8-carboxylic Acid (Mixture of Stereoisomers)] here?
Answer: 2.2 nM

Question: What about the IC50 (SUDHL5 cells; [2]) of the same compound?
Answer: 1500 nM

Question: CCC1OCCCCn2c(C(=O)O)c(CCCOc3cccc4ccccc34)c3ccc(Cl)c(c32)-c2c1nn(C)c2C (racemic) [Example 25, (rac)-4-chloro-15-ethyl-2,3-dimethyl-7-{3-[(naphthalen-1-yl)oxy]propyl}-2,10,11,12,13,15-hexahydropyrazolo[4′,3′:9,10][1,6]oxazacycloundecino[8,7,6-hi]indole-8-carboxylic Acid] was tested. Which IC50 (MCL-1) did it give?
Answer: 1.9 nM

Question: What about the IC50 (SUDHL5 cells; [2]) of the same compound?
Answer: 2300 nM

Question: Cc1c2c(nn1C)C(CCO)OCCCCn1c(C(=O)O)c(CCCOc3cccc4ccccc34)c3ccc(Cl)c-2c31 (single isomer, unassigned; enantiomer 1) [Example 31, (+)-4-chloro-15-(2-hydroxyethyl)-2,3-dimethyl-7-{3-[(naphthalen-1-yl)oxy]propyl}-2,10,11,12,13,15-hexahydropyrazolo[4′,3′:9,10][1,6]oxazacycloundecino[8,7,6-hi]indole-8-carboxylic Acid (Enantiomer 1)] was tested. Which IC50 (MCL-1) did it give?
Answer: 0.26 nM

Question: And the IC50 (SUDHL5 cells; [1])?
Answer: 240 nM

Question: What does the source list for Cc1c2c(nn1C)C(CCN1CCOCC1)OCCCCn1c(C(=O)O)c(CCCOc3cccc4ccccc34)c3ccc(F)c-2c31 (racemic) [Example 7, (rac)-4-fluoro-2,3-dimethyl-15-[2-(morpholin-4-yl)ethyl]-7-[3-(naphthalen-1-yloxy)propyl]-2,10,11,12,13,15-hexahydropyrazolo[4′,3′:9,10][1,6]oxazacycloundecino[8,7,6-hi]indole-8-carboxylic Acid]?
Answer: IC50 (MCL-1): 0.66 nM; IC50 (SUDHL5 cells; [2]): 200 nM

Question: Which IC50 (MCL-1) does the source give for CCc1c2c(nn1C)C1CCCCN1CCCCn1c(C(=O)O)c(CCCOc3cccc4ccccc34)c3ccc(Cl)c-2c31 (racemic) [Example 102, (rac)-18-chloro-1-ethyl-2-methyl-15-[3-(1-naphthyloxy)propyl]-2,3b,4,5,6,7,9,10,11,12-decahydropyrazolo[3′,4′:8,9]pyrido[1′,2′:6,7][1,6]diazacycloundecino[10,11,1-hi]indole-14-carboxylic Acid] here?
Answer: 1.4 nM

Question: What about the IC50 (SUDHL5 cells; [2]) of the same compound?
Answer: 1400 nM

Question: With CCc1c2c(nn1C)C(CC(C)(C)O)OCCCCn1c(C(=O)O)c(CCCOc3cccc4cc(F)ccc34)c3ccc(Cl)c-2c31 (racemic) [Example 52, (rac)-4-chloro-3-ethyl-7-{3-[(6-fluoronaphthalen-1-yl)oxy]propyl}-(15-rac)-(2-hydroxy-2-methylpropyl)-2-methyl-2,10,11,12,13,15-hexahydropyrazolo[4′,3′:9,10][1,6]oxazacycloundecino[8,7,6-hi]indole-8-carboxylic Acid] as the compound, how does the IC50 (MCL-1) read?
Answer: 0.88 nM

Question: And the IC50 (SUDHL5 cells; [2])?
Answer: 400 nM

Question: Cc1c2c(nn1C)C(C)OCCCCn1c(C(=O)O)c(CCCOc3cccc4ccccc34)c3cccc-2c31 (single isomer, unassigned; stereoisomer 1) [Example 2, 2,3,15-trimethyl-7-[3-(naphthalen-1-yloxy)propyl]-2,10,11,12,13,15-hexahydropyrazolo[4′,3′:9,10][1,6]oxazacycloundecino[8,7,6-hi]indole-8-carboxylic Acid Trifluoroacetic Acid Salt (Stereoisomer 1)] was tested. Which IC50 (MCL-1) did it give?
Answer: 1.2 nM

Question: And the IC50 (SUDHL5 cells; [3])?
Answer: 3500 nM

Question: With Cc1c2c(nn1C)C(CCN1CCOCC1)OCCCCn1c(C(=O)O)c(CCCOc3cccc4cc(F)ccc34)c3ccc(F)c-2c31 (racemic) [Example 19, (rac)-4-fluoro-7-{3-[(6-fluoronaphthalen-1-yl)oxy]propyl}-2,3-dimethyl-15-[2-(morpholin-4-yl)ethyl]-2,10,11,12,13,15-hexahydropyrazolo[4′,3′:9,10][1,6]oxazacycloundecino[8,7,6-hi]indole-8-carboxylic Acid] as the compound, how does the IC50 (MCL-1) read?
Answer: 1.6 nM

Question: What about the IC50 (SUDHL5 cells; [2]) of the same compound?
Answer: 77 nM

Question: With Cc1c2c(nn1C)C(CCN1CCOCC1)OCCCCn1c(C(=O)O)c(CCCOc3cccc4cc(F)ccc34)c3ccc(F)c-2c31 (single isomer, unassigned; enantiomer 2) [Example 21, 4-fluoro-7-{3-[(6-fluoronaphthalen-1-yl)oxy]propyl}-2,3-dimethyl-15-[2-(morpholin-4-yl)ethyl]-2,10,11,12,13,15-hexahydropyrazolo[4′,3′:9,10][1,6]oxazacycloundecino[8,7,6-hi]indole-8-carboxylic Acid (Enantiomer 2)] as the compound, how does the IC50 (MCL-1) read?
Answer: 160 nM

Question: And the IC50 (SUDHL5 cells; [2])?
Answer: 3400 nM

Question: Cc1c2c(nn1C)C(C)OCCCCn1c(C(=O)O)c(CCCOc3cccc4ccccc34)c3cccc-2c31 (single isomer, unassigned; stereoisomer 2) [Example 3, 2,3,15-trimethyl-7-[3-(naphthalen-1-yloxy)propyl]-2,10,11,12,13,15-hexahydropyrazolo[4′,3′:9,10][1,6]oxazacycloundecino[8,7,6-hi]indole-8-carboxylic Acid Trifluoroacetic Acid Salt (Stereoisomer 2)] was tested. Which IC50 (MCL-1) did it give?
Answer: 22 nM

Question: And the IC50 (SUDHL5 cells; [3])?
Answer: 20000 nM

Question: With Cc1c2c(nn1C)C(CCN1CCOCC1)OCCCCn1c(C(=O)O)c(CCCOc3cccc4ccccc34)c3ccc(Cl)c-2c31 (single isomer, unassigned; enantiomer 1) [Example 14, 4-chloro-2,3-dimethyl-15-[2-(morpholin-4-yl)ethyl]-7-{3-[(naphthalen-1-yl)oxy]propyl}-2,10,11,12,13,15-hexahydropyrazolo[4′,3′:9,10][1,6]oxazacycloundecino[8,7,6-hi]indole-8-carboxylic Acid (Enantiomer 1)] as the compound, how does the IC50 (MCL-1) read?
Answer: 0.53 nM

Question: What about the IC50 (SUDHL5 cells; [1]) of the same compound?
Answer: 28 nM

Question: Which results are given for CCc1c2c(nn1C)C(CCO)OCCCCn1c(C(=O)O)c(CCCOc3cccc4cc(F)ccc34)c3ccc(Cl)c-2c31 (racemic) [Example 44, (rac)-4-chloro-3-ethyl-7-{3-[(6-fluoronaphthalen-1-yl)oxy]propyl}-(15-rac)-(2-hydroxyethyl)-2-methyl-2,10,11,12,13,15-hexahydropyrazolo[4′,3′:9,10][1,6]oxazacycloundecino[8,7,6-hi]indole-8-carboxylic Acid]?
Answer: IC50 (MCL-1): 0.39 nM; IC50 (SUDHL5 cells; [2]): 140 nM

Question: What does the source list for COCCC1OCCCCn2c(C(=O)O)c(CCCOc3cccc4ccccc34)c3ccc(Cl)c(c32)-c2c1nn(C)c2C (racemic) [Example 37, (rac)-4-chloro-(15-rac)-(2-methoxyethyl)-2,3-dimethyl-7-{3-[(naphthalen-1-yl)oxy]propyl}-2,10,11,12,13,15-hexahydropyrazolo[4′,3′:9,10][1,6]oxazacycloundecino[8,7,6-hi]indole-8-carboxylic Acid]?
Answer: IC50 (MCL-1): 0.48 nM; IC50 (SUDHL5 cells; [2]): 510 nM

Question: Cc1c2c(nn1C)C(CCN1CCOCC1)OCCCCn1c(C(=O)O)c(CCCOc3cccc4ccccc34)c3cccc-2c31 (single isomer, unassigned; stereoisomer 2) [Example 6, 2,3-dimethyl-15-[2-(morpholin-4-yl)ethyl]-7-[3-(naphthalen-1-yloxy)propyl]-2,10,11,12,13,15-hexahydropyrazolo[4′,3′:9,10][1,6]oxazacycloundecino[8,7,6-hi]indole-8-carboxylic Acid (Stereoisomer 2)] was tested. Which IC50 (MCL-1) did it give?
Answer: 51 nM

Question: And the IC50 (SUDHL5 cells; [1])?
Answer: 8200 nM

Question: Which results are given for CCc1c2c(nn1C)C(CCC(C)(C)O)OCCCCn1c(C(=O)O)c(CCCOc3cccc4cc(F)ccc34)c3ccc(Cl)c-2c31 (racemic) [Example 74, (rac)-4-chloro-3-ethyl-7-{3-[(6-fluoronaphthalen-1-yl)oxy]propyl}-(15-rac)-(3-hydroxy-3-methylbutyl)-2-methyl-2,10,11,12,13,15-hexahydropyrazolo[4′,3′:9,10][1,6]oxazacycloundecino[8,7,6-hi]indole-8-carboxylic Acid]?
Answer: IC50 (MCL-1): 1 nM; IC50 (SUDHL5 cells; [2]): 67 nM

From patent US11440923B2, “Substituted macrocyclic indole derivatives” (Bayer Aktiengesellschaft, priority 2017, dated 2022)
